Measured values reported in the supplement of paper PMC10307832.

What was measured:
Experiment in all cases: relative viability (nuclei count vs DMSO), 5 days (fraction); higher = more cells survive
[1] = compound: O=C(CCCCCCNC(=O)c1cnc(N(c2ccccc2)c2ccccc2)nc1)NO [Ricolinostat] + Cc1nc(Nc2ncc(C(=O)Nc3c(C)cccc3Cl)s2)cc(N2CCN(CCO)CC2)n1 [Dasatinib] (partner 0.075 µM)
How it was run: (§1)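 Lung cancer cell lines, seeded in 1536-well plates, were treated the following day by pin tool with a single drug or with five library-drug doses (not always all listed) in √10 steps on top of a fixed anchor-drug dose. Cells were fixed and nuclei stained in one step after 5 days, and nuclei were counted. Relative viability is the nuclei count for treated wells divided by that for vehicle wells, reported as medians of duplicate plates.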

[2] = compound: C1=CC=C(C(=C1)C2=CC=C(C=C2)C3=CSC4=C3C(=C(C(=O)N4)C#N)O)O + CS(=O)(=O)CCNCc1ccc(-c2ccc3ncnc(Nc4ccc(OCc5cccc(F)c5)c(Cl)c4)c3c2)o1 [Lapatinib] (partner 2 µM)
How it was run: as §1

[3] = compound: C1=CC=C(C(=C1)C2=CC=C(C=C2)C3=CSC4=C3C(=C(C(=O)N4)C#N)O)O + CC1(C)CCC(c2ccc(Cl)cc2)=C(CN2CCN(c3ccc(C(=O)NS(=O)(=O)c4ccc(N[C@H](CCN5CCOCC5)CSc5ccccc5)c(S(=O)(=O)C(F)(F)F)c4)cc3)CC2)C1 [Navitoclax] (partner 0.5 µM)
How it was run: as §1

[4] = compound: CC1=CN2C(=O)C=C(N=C2C(=C1)C(C)NC3=CC=CC=C3)N4CCOCC4 [TGX 221] + O=C(CCCCCCC(=O)Nc1ccccc1)NO [Vorinostat] (partner 1 µM)
How it was run: as §1

Cell Line | relative viability ([1]; first compound 0.08 µM) | relative viability ([1]; first compound 0.253 µM) | relative viability ([1]; first compound 0.8 µM) | relative viability ([1]; first compound 2.53 µM) | relative viability ([2]; first compound 0.253 µM) | relative viability ([2]; first compound 0.8 µM) | relative viability ([2]; first compound 2.53 µM) | relative viability ([2]; first compound 8 µM) | relative viability ([3]; first compound 0.253 µM) | relative viability ([3]; first compound 0.8 µM) | relative viability ([3]; first compound 2.53 µM) | relative viability ([3]; first compound 8 µM) | relative viability ([4]; first compound 0.08 µM) | relative viability ([4]; first compound 0.253 µM) | relative viability ([4]; first compound 0.8 µM) | relative viability ([4]; first compound 2.53 µM) | relative viability ([4]; first compound 8 µM) | relative viability ([2]; first compound 0.08 µM) | relative viability ([3]; first compound 0.08 µM)
NCI-H1650 | 0.275 | 0.381 | 0.289 | 0.287 | 0.872 | 0.811 | 0.72 | 0.54 | 1.25 | 1.23 | 1.15 | 0.865 | 0.482 | 0.478 | 0.521 | 0.676 | 0.48 |  | 
NCI-H1651 | 0.414 | 0.544 | 0.428 | 0.4 | 0.799 | 0.78 | 0.821 | 0.683 | 0.941 | 1.05 | 1.1 | 0.642 | 0.525 | 0.646 | 0.527 | 0.517 | 0.581 | 0.697 | 1.07
NCI-H1437 | 0.398 | 0.511 | 0.337 | 0.279 | 0.794 | 0.772 | 0.891 | 0.527 | 1.16 | 1.18 | 1.13 | 0.881 | 0.888 | 0.922 | 0.858 | 0.852 | 0.779 | 0.72 | 1.06
SK-MES-1 | 0.25 | 0.288 | 0.451 | 0.44 | 0.51 | 0.441 | 0.457 | 0.463 | 1.34 | 1.3 | 1.14 | 1 | 1.03 | 0.997 | 1.16 | 0.987 | 0.894 | 0.435 | 1.34
NCI-H647 | 0.109 | 0.144 | 0.181 | 0.246 | 1.2 | 1.11 | 1.16 | 0.871 | 1.16 | 1.24 | 1.21 | 0.741 | 0.466 | 0.442 | 0.457 | 0.547 | 0.665 | 0.447 | 0.877
LK-2 | 0.34 | 0.271 | 0.444 | 0.35 | 0.884 | 0.932 | 1.05 | 0.696 |  | 0.895 | 0.87 | 0.683 | 0.356 | 0.309 | 0.249 | 0.415 | 0.505 |  | 
LU99A | 0.461 | 0.583 | 0.465 | 0.512 | 1.09 | 1.13 | 1.12 | 0.955 | 0.878 | 0.804 | 0.791 | 0.769 | 0.431 | 0.514 | 0.588 | 0.356 | 0.529 | 0.97 | 0.64
NCI-H520 |  | 0.313 | 0.211 | 0.231 | 0.876 | 1.15 | 0.859 | 0.736 | 1.15 | 1.2 | 1.11 | 0.891 | 0.599 | 0.564 | 0.627 | 0.493 | 0.53 | 0.602 | 1.08
HCC-78 |  | 0.438 | 0.356 | 0.281 | 0.935 | 0.899 | 0.781 | 0.809 | 1.02 | 0.754 | 0.943 | 0.708 | 0.518 | 0.449 | 0.428 | 0.338 | 0.362 | 0.575 | 0.826
